Measurements reported in article PMC10916291, “Cocrystals of a coumarin derivative: an efficient approach towards anti-leishmanial cocrystals against MIL-resistant Leishmania tropica” (IUCrJ, 2024).
Read-outs that look alike come from different tables or passages of the source.

Columns and labels:
[1] = Thermal analysis (DSC and TGA); format: physicochemical; conditions: heating rate 10°C min^-1, dry N2
Protocol: DSC and TGA were performed on a LINSEIS STA PT1600 with heating rate of 10°C min^−1. About 20–25 mg of samples were crimped in a ceramic pan and scanned from 30 to 600°C under dry N2 gas purging. The Linseis TA software (version 1.0; Linseis Messgeraete GmbH) was employed for collecting data.

[2] = test system: 3T3 (normal mouse fibroblast) cell line; experiment: in vitro
Protocol: (§1) In vitro biological activities of CU, coformers and synthesized cocrystals 2–6 were evaluated for their MIL-resistant L. tropica promastigotes and cytotoxicity against […]. Detailed methodologies of the biological assays are provided in the supporting information.
(§2) 2. Cytotoxicity assay Protocol:
(§3) Cy totoxicity o f compounds was evaluated in 96-well flat-bo ttomed micro plates by using the standard MTT (3-[4, 5-dimethylthiazole-2-y l]-2 , 5-d iph eny l-tetrazolium bromide) colorimetric assay. For this purpose, 3T3 (mouse fibroblast) cells were cultured in Dulb ecco’s Modified Eagle Medium, supplemented with 5% of fetal bovine serum (FBS), 100 IU/mL of penicillin and 100 µg / m L of strep tomy cin in 75 cm2 flasks, and kept in 5% CO2 incubator at 37° C.
(§4) Exponentially growing cells were harvested, counted with haemocytometer, and diluted with a particular medium. Cell culture with the concentration of 5x10^4 cells/mL was p rep ared and introduced (100 µL/well) into 96-well plates. After overnight incubation, medium was removed and 200 µL of fresh medium was added with different concentrations of compounds (1-30 µM).
(§5) After 48 hrs. 200 µL MTT (0.5 mg/mL) was added to each well, and incubated further for 4 hrs.
(§6) Subsequently, 100 µL of DMSO was added to each well. The extent of MTT reduction to formazan within cells was calculated by measuring the absorbance at 540 nm, using a micro-plate reader (Spectra Max p lus, Molecular Devices, USA). The cy totoxicity was recorded as a concentration causing 50% growth inhibition (IC50) of 3T3 cells. The percent inhibition was calculated by using the fo llo wing formula:
(§7) % Inhibition = 100-((mean of O.D of test compound – mean of O.D of negative control)/ (mean of O.D. of positive control – mean of O.D of negative control)*100).
(§8) The results (% inhibition) were processed by using Soft- Max Pro software (Molecular Devices, […]

in vitro = conditions: mouse
Protocol: as §1, §2, §3, §4, §5, §6, §7, §8

[3] = test system: MIL-resistant L. tropica promastigotes; experiment: Growth of MIL-resistant L. tropica line generated by step-wise selection (trypan blue count); format: cell-based, Leishmania tropica; conditions: step-wise selection of MIL up to 196 µM, Fig. 9
Protocol: L. tropica MIL-unresponsive/resistant parasites were developed and maintained using a step-wise selection of the drug MIL up to a concentration of 196 µM. No significant differences in growth patterns were observed between WT- and MIL-resistant strains.
Figure 9 MIL-resistant L. tropica line generated by step-wise selection. 1 × 10^6 log-phase promastigotes were incubated in the presence of a range of drug concentrations. The surviving cells were quantified with trypan blue dye. Populations of parasites were grown in increasing concentrations of MIL, showing increased resistance to MIL. Bars of both resistant and WT parasites represent the more or less similar growth patterns.
(§9) Biological activities evaluations
1. MIL-resistant L. tropica assay protocol […]
Generation of Miltefosine-unresponsive strain was carried under high MIL pressure by in vitro passage with stepwise increase in the MIL concentration. […] Growth rates were measured for resistant populations and compared with the WT strain. Parasites were counted at an initial concentration of 5 x 10^5 parasites/mL, and growth was measured daily using a Neubauer chamber until the population reached stationary phase. Fu rth ermore, the fluorescence microscopic investigations via DAPI stain were also carried out to supplement the study, and for […]

[4] = test system: MIL-resistant L. tropica promastigotes; experiment: microbe, parasite or virus in culture; format: cell-based, Leishmania tropica; conditions: for IC50: Leishmania tropica, 72 h, read-out: Anti-leishmanial activity against MIL-resistant L. tropica via MTT assay (IC50 = µM ± SEM)
Protocol: as §1, §9
1. MIL-resistant L. tropica assay protocol
Miltefosine (hexadecylphosphocholine) (LEAP Chem), RPMI-1640 culture medium (Gibco), supplemented with 10% (v/v) heat-inactivated fetal bovine serum (FBS) (Gibco), 2 mM L-glutamine, 1% penicillin/ streptomycin (Sigma), DMSO (ALC labscan), and Trypan blue […]
Clinical Isolate and Generation of MIL resistant line:
Clinical isolate (L. tropica promastigote) from the endemic area of Islamabad (Pakistan) was ob tained from a patient. Promastigote cultures were maintained at 26 °C in RPMI medium, containing 15 % FBS and 1 % penicillin–streptomycin mixture. Clinical isolate was characterized by sequencing.
Generation of Miltefosine-unresponsive strain was carried under high MIL pressure by in vitro passage with stepwise increase in the MIL concentration. At each step, parasites were cultured, and passaged every 3–4 days at an initial concentration of 5x10^5 promastigotes/mL in order to achieve the stable growth, as compared to the wild type isolate. Growth rates were measured for resistant populations and compared with the WT strain. Parasites were counted at an initial concentration of 5 x 10^5 parasites/mL, and growth was measured daily using a Neubauer chamber until the population reached stationary phase. Fu rth ermore, the fluorescence microscopic investigations via DAPI stain were also carried out to supplement the study, and for […]
Promastigote Growth Inhibition Assay
(IC50) of resistant cell proliferation concerning untreated controls, the MTT assay was employed.
The promastigotes in their log phase were used in 96-well plates. 1 × 106 wild-type and resistant […]
promastigotes were dispensed in 96-well plates, and incubated with tested compounds at a range concentration of 200–10 μM (stock concentration 1mg/mL and the working con centrations started from 250 µg/mL) at 27°C for 72 h. After incubation of 72 h, MTT dye (3-(4,5-dimethylthiazol-2-yl)-2,5-diphenyl-2H-tetrazolium bromide) was added and further incubate it for 3–4 h. Amphotericin B, pantamidine and miltefosine were used as th e positive control, untreated promastigotes were used as negative control moreover DMSO control was also added in the study as a stock solution of the compounds that were prepared in DMSO. All the experiments were performed in triplicates. After completion of the experiment the absorbance by Multiskan ascent plate reader at 452 nm and percent inhibition was calculated by the following […]
Cytotoxic concentration (%) = [100- (Absorbance of test)/ (Absorbance of solv ent con trol) ×100]

O=C(O)c1cc2ccccc2oc1=O [Cocrystal 1a, Coumarin-3-carboxylic acid]
Thermal stability up to (TGA/DSC) [1]: 191.78 °C | Cytotoxic activity 3T3 cell line (IC50 = µM ± SEM) [2]: Non-cytotoxic

Nc1ccc(C(=O)O)cc1 [Cocrystal 1e, p-aminobenzoic acid]
Cytotoxic activity 3T3 cell line (IC50 = µM ± SEM) [2]: Non-cytotoxic

C[C@@H]1C[C@@H]([C@H](O)CC2CC(=O)NC(=O)C2)C(=O)[C@@H](C)C1 [cyclohexamide, reference compound]
IC50 at 48 h (in vitro): 800 ± 140 nM

Nc1ncccc1Br [Cocrystal 1b, 2-amino-3-bromopyridine]
Thermal stability up to (TGA/DSC) [1]: 67.29 °C | Cytotoxic activity 3T3 cell line (IC50 = µM ± SEM) [2]: Non-cytotoxic

Nc1ccc(C(F)(F)F)cn1 [Cocrystal 1c, 2-amino-5-(trifluoromethyl)-pyridine]
Thermal stability up to (TGA/DSC) [1]: 48.38 °C | Cytotoxic activity 3T3 cell line (IC50 = µM ± SEM) [2]: Non-cytotoxic

CCCCCCCCCCCCCCCCOP(=O)([O-])OCC[N+](C)(C)C [miltefosine, hexadecylphosphocholine, reference compound]
Inhibitory effect on cell proliferation of MIL-resistant L. tropica [3]: no inhibitory effects | IC50 [4]: 169.55 ± 0.078 µM

Nc1nc[nH]n1 [Cocrystal 1f, amitrole]
Cytotoxic activity 3T3 cell line (IC50 = µM ± SEM) ([2]; 3T3 normal mouse fibroblast, MTT, 48 h, 1-30 µM): Non-cytotoxic | IC50 [4]: 78 ± 0.96 µM | Percent Inhibitions ([4]; Table S1, concentration 46.95 (unit not given)): 44.0% | Percent Inhibitions ([4]; Table S1, concentration 93.88 (unit not given)): 53.1% | Percent Inhibitions ([4]; Table S1, concentration 187 (unit not given)): 63.01%
